From patent publication US7531318B2, “Screening of agents for activity against ischemic myocardial insults” (priority 2004, dated 2009) come the findings set out here.

The test system of the assay is ILK, Akt (serine 473) in C2C12 myoblasts and embryonic heart explants. As to the kind of experiment: ILK localization/expression and Akt phosphorylation by immunocytochemistry and western blot. Type of assay: cell-based. The conditions noted are these: COS1 or C2C12 cells; F-actin polymerization inhibited; data not shown. The method, then: Immunocytochemistry on collagen gel explants. Paraformaldehyde-fixed explants were permeabilized for 10 min at room temperature with Permeabilize solution (10 mM PIPES pH 6.8; 50 mM NaCl, 0.5% Triton X-100, 300 mM sucrose, 3 mM MgCl2) and rinsed with PBS twice for 5 min each at room temperature. After a series of blocking and rinsing steps, detection antibodies were used and explants rinsed and incubated with equilibration buffer (Anti-Fade kit) for 10 min at room temperature. Explants were scooped to a glass microscope slide, covered and examined by fluorescein microscopy. TUNEL assay was performed using ApopTag plus fluorescein in situ apoptosis detection kit (Intergen Company S7111) as recommended.
Because recruitment of ILK to the focal adhesion complex is important for its activation, the inventors assayed the effects of thymosin β4 on ILK localization and expression. […] Because thymosin β4 sequesters the pool of G-actin monomers, the inventors asked whether the effects on ILK activation were dependent on the role of thymosin β4 in regulating the balance between polymerized F-actin and monomeric G-actin.

For the substance C3 transferase [reference compound], the “effect on thymosin β4-induced ILK activation” value was “neither intervention affected the ILK activation”.
